Assays:
[1] = target: T1, Acyl-homoserine-lactone synthase (Pseudomonas aeruginosa (strain ATCC 15692 / PAO1 / 1C / PRS 101 / LMG12228)) (UniProt P33883); experiment: Inhibition of Pseudomonas aeruginosa PAO1 LasI after 10 mins by beta-galactosidase reporter gene assay
T1 sequence (whole entry): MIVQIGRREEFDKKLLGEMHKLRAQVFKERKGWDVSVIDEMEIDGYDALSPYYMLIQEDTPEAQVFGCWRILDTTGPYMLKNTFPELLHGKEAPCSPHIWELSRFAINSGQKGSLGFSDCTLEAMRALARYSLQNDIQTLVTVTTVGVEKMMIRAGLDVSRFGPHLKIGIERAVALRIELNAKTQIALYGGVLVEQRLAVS

[2] = target: T2, Transcriptional activator protein LasR (Pseudomonas aeruginosa (strain ATCC 15692 / PAO1 / 1C / PRS 101 / LMG12228), UniProt P25084); experiment: Antagonist activity at Pseudomonas aeruginosa LasR expressed in Escherichia coli DH5alpha assessed as inhibition of protein interaction with OdDHL after 1.5 hrs by beta-galactosidase reporter gene assay
T2 sequence (P25084 whole entry): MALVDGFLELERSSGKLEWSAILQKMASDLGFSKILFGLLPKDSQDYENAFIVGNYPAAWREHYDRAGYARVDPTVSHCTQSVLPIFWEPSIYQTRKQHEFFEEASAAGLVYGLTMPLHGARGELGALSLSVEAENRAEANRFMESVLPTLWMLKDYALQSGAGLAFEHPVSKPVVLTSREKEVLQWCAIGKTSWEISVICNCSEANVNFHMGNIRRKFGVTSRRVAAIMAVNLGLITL

[3] = target: T3, HTH-type quorum-sensing regulator RhlR (Pseudomonas aeruginosa (strain ATCC 15692 / PAO1 / 1C / PRS 101 / LMG12228)) (UniProt P54292); conditions: 2.27 mM
T3 sequence (whole entry): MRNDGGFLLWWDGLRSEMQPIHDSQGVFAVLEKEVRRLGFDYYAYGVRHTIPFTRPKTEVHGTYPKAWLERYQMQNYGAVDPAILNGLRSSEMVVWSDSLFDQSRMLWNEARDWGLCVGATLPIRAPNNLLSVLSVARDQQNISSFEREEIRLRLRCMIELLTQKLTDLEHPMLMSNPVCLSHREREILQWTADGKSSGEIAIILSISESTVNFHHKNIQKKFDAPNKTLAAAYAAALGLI
Description: Antagonist activity at Pseudomonas aeruginosa PAO1 GFP-fused RhlR expressed in Escherichia coli DH5alpha co-expressing rhlA promoter assessed as inhibition of L-arabinose-induced C4-HSL production at 2.27 mM after 5 hrs relative to control

[4] = target: T2, Transcriptional activator protein LasR; experiment: Inhibition of LasR in Pseudomonas aeruginosa reporter strain harboring gfp-lasB
[5] = Antagonist activity at Escherichia coli DH5alpha PqsR by beta-galactosidase reporter gene assay
[6] = Antagonist activity at Escherichia coli LasR assessed as inhibition of protein interaction with OdDHL by beta-galactosidase reporter gene assay
Pseudomonas aeruginosa [7] = experiment: Inhibition of Pseudomonas aeruginosa quorum sensing system assessed as decrease in 3OC12-HSL production at 6 mM relative to control
Pseudomonas aeruginosa [8] = experiment: Inhibition of Pseudomonas aeruginosa quorum sensing system assessed as decrease in C4-HSL production at 6 mM relative to control
[9] = target: T2, Transcriptional activator protein LasR; experiment: Antagonist activity at LasR in Pseudomonas aeruginosa reporter strain
[10] = target: T4, Transcriptional activator protein LasR (Pseudomonas aeruginosa (strain ATCC 15692 / PAO1 / 1C / PRS 101 / LMG12228)) (UniProt P25084); experiment: Antagonist activity at Pseudomonas aeruginosa LasR expressed in Pseudomonas putida F117 assessed as inhibition of 3-oxo-C12-HSL-induced protein activation at 20 uM after 4 hrs by fluorescence assay relative to control
T4 sequence (whole entry): T2 sequence (P25084 whole entry)

[11] = Inhibition of Pseudomonas aeruginosa PqsBC assessed as decrease in conversion of 2-ABA/octanoyl-CoA to HHQ measured every 60 secs
[12] = target: T5, HTH-type quorum-sensing regulator RhlR (Pseudomonas aeruginosa (strain ATCC 15692 / PAO1 / 1C / PRS 101 / LMG12228), UniProt P54292); experiment: Inhibition of Pseudomonas aeruginosa GFP-fused RhlR expressed in Escherichia coli BL21-Gold (DE3) co-expressing rhlA promoter by beta-galactosidase reporter gene assay
T5 sequence (P54292 whole entry): T3 sequence (whole entry)

[13] = Antagonist activity at Pseudomonas aeruginosa PqsR
[14] = target: T6, 2-heptyl-4(1H)-quinolone synthase PqsD (Pseudomonas aeruginosa, UniProt A0A0C7ACN7); experiment: Inhibition of recombinant Pseudomonas aeruginosa PqsD expressed in Escherichia coli using anthraniloyl-CoA as substrate assessed as decrease in HHQ production
T6 sequence (A0A0C7ACN7 whole entry): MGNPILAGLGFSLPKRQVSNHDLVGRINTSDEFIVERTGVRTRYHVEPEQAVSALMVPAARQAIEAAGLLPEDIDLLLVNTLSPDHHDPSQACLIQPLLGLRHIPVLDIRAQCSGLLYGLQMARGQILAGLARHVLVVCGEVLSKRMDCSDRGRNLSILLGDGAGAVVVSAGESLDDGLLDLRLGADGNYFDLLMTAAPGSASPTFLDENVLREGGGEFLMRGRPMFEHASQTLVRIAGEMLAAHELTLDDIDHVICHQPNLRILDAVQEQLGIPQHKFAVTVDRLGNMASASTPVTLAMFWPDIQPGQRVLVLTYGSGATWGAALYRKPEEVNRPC

[15] = target: T6, 2-heptyl-4(1H)-quinolone synthase PqsD; experiment: Binding affinity to recombinant Pseudomonas aeruginosa PqsD at 298 K by ITC assay
Pseudomonas aeruginosa [16] = experiment: Inhibition of Pseudomonas aeruginosa PQS signaling at 138 uM relative to control
[17] = Antagonist activity at Pseudomonas aeruginosa His6/Sumo-tagged PqsR by beta-galactosidase reporter gene assay
[18] = Antagonist activity at Escherichia coli His6/Sumo-tagged PqsR by beta-galactosidase reporter gene assay
[19] = target: T4, Transcriptional activator protein LasR (Pseudomonas aeruginosa (strain ATCC 15692 / PAO1 / 1C / PRS 101 / LMG12228)); experiment: Inhibition of OC12-HSL-dependent LasR activation in Pseudomonas aeruginosa MH602 harboring GFP-fused quorum sensing lasB at 250 uM measured every 30 mins up to 15 hrs by GFP reporter gene assay
[20] = target: T6, 2-heptyl-4(1H)-quinolone synthase PqsD; experiment: Inhibition of Pseudomonas aeruginosa PqsD
Pseudomonas aeruginosa [21] = experiment: Antibiofilm activity against Pseudomonas aeruginosa PA14 at 100 uM; format: functional
[22] = target: T6, 2-heptyl-4(1H)-quinolone synthase PqsD; experiment: Antagonist activity at Pseudomonas aeruginosa PqsD
[23] = target: T2, Transcriptional activator protein LasR; experiment: Antagonist activity at GFP-fused LasR in Pseudomonas aeruginosa PAO-JP2 co-expressing LVAgfp plasmid by fluorescence assay
Pseudomonas aeruginosa [24] = experiment: In vivo inhibition of Pseudomonas aeruginosa PA14 PqsR in immunocompetent acute mouse thigh infection model assessed as decrease in PQS levels in plasma at 200 mg/kg, po administered at 2, 10, 18 and 26 hrs post infection measured at 12 hrs relative to control; format: functional
[25] = Inhibition of Pseudomonas aeruginosa PA14 PqsBC catalytic activity using 2-ABA/octanoyl-CoA as substrate after 5 mins
[26] = target: T2, Transcriptional activator protein LasR; experiment: Inhibition of LasR in Pseudomonas aeruginosa harboring GFP-fused quorum sensing lasB measured every 15 mins up to 12 hrs by GFP reporter gene assay
[27] = target: T2, Transcriptional activator protein LasR; experiment: Antagonist activity at Pseudomonas aeruginosa LasR expressed in Escherichia coli DH5alpha assessed as inhibition of […]-induced receptor activation after 4 hrs by Miller-type beta-galactosidase reporter gene assay
[28] = target: T2, Transcriptional activator protein LasR; experiment: Antagonist activity at LasR in Pseudomonas aeruginosa PAO1 harboring GFP-fused quorum sensing lasB measured every 15 mins for 14 hrs by GFP reporter gene assay
Escherichia coli = experiment: Antagonist activity at Escherichia coli LasR at 6 uM by luciferase reporter gene assay
[29] = Inhibition of Pseudomonas aeruginosa PqsR
[30] = target: T3, HTH-type quorum-sensing regulator RhlR (Pseudomonas aeruginosa (strain ATCC 15692 / PAO1 / 1C / PRS 101 / LMG12228)); experiment: Non-competitive inhibition of Pseudomonas aeruginosa RhlR expressed in Escherichia coli; conditions: concentration not given here
[31] = target: T4, Transcriptional activator protein LasR (Pseudomonas aeruginosa (strain ATCC 15692 / PAO1 / 1C / PRS 101 / LMG12228)); experiment: Non-competitive inhibition of Pseudomonas aeruginosa LasR expressed in Escherichia coli; conditions: concentration not given here
[32] = target: T2, Transcriptional activator protein LasR; experiment: Antagonist activity at Pseudomonas aeruginosa MW1 LasR assessed as inhibition of protein interaction with OdDHL by beta-galactosidase reporter gene assay

## CCCCCCC/C=C1\SC(=O)NC1=O
[1]
  inhibition: 40%

## CCCCCCCC(=O)N[C@H]1CCOC1=O
[2]
  IC50: 0.34 µM

## C[S+]([O-])CCCCN=C=S (configuration not stated)
[3]
  inhibition: 42.1%

## O=C(CCCC1CCCCC1)N[C@H]1CCOC1=O
[2]
  IC50: 10 µM

## C=CCSS/C=C/C[S+]([O-])CC=C (configuration not stated) [AJOENE]
[4]
  IC50: 15 µM

## CCCCCCCc1cc(=O)c2cc(C(F)(F)F)ccc2[nH]1
[5]
  IC50: 0.054 µM

## O=C(NCCc1ccc(Br)cc1)c1ccccc1[N+](=O)[O-]
[6]
  IC50: 4.8 µM

## CN(C)CCc1ccc(O)cc1
Pseudomonas aeruginosa [7]
  inhibition: 30%
Pseudomonas aeruginosa [8]
  inhibition: 70%

## Nc1cccc(-n2cc(CCC(=O)N[C@H]3CCOC3=O)nn2)c1
[9]
  IC50: 4.03 µM

## NC(=O)SCNc1cccc(Cl)c1
[10]
  inhibition: 50 to 60%

## CC(=O)c1ccccc1N [2-AMINOACETOPHENONE]
[11]
  EC50: 46 µM

## CCCCCCCc1cc(=O)c2cc([N+](=O)[O-])ccc2[nH]1
[5]
  IC50: 0.051 µM

## O=C(CCCCOc1cccc(Br)c1)NC1CCSC1=O (configuration not stated)
[12]
  IC50: 8 µM

## CS(=O)(=O)c1ncc(-n2cc(C(O)C3CCCC3)nn2)cn1 (configuration not stated)
[13]
  IC50: 26 µM

## O=[N+]([O-])c1ccccc1C(O)c1ccccc1 (configuration not stated)
[14]
  IC50: 3.2 µM
[15]
  Kd: 13 µM

## NCCCCCCCCCCCCNc1ccnc2cc(Cl)ccc12
Pseudomonas aeruginosa [16]
  inhibition: 81%

## CC(C)(C)c1ccc(C(=O)NO)cc1
[17]
  IC50: 23.6 µM
[18]
  IC50: 12.5 µM

## CCCCCC(=O)Nc1c(-c2ccccc2)[nH]c2ccccc12
[19]
  inhibition: 65%

## CCCCCCS(=O)(=O)c1ncc(-n2ccnn2)cn1
[20]
  IC50: 1.7 µM
Pseudomonas aeruginosa [21]
  Activity: 60%

## O=C(Nc1ccccc1C(=O)O)c1ccc(-c2ccccc2)c(Oc2ccccc2)c1
[22]
  IC50: 35 µM

## NC(=O)SCNc1ccccc1O
[10]
  inhibition: 50 to 60%

## CCCCc1cn(CC(=O)N[C@H]2CCOC2=O)nn1
[9]
  IC50: 3.27 µM

## O=C(Cc1ccc(Br)cc1)N[C@H]1CCOC1=O
[23]
  IC50: 14.8 µM

## O=C(CCCc1c[nH]c2ccccc12)N[C@H]1CCOC1=O
[23]
  IC50: 16.1 µM

## O=C(CCSc1ccc(Cl)cc1)N[C@H]1CCOC1=O
[9]
  IC50: 5.2 µM

## O=C(N[C@H]1CCOC1=O)c1ccc(-n2cc(CSc3ccccc3)nn2)cc1
[9]
  IC50: 2.64 µM

## NC(=O)c1cc2cc(Cl)ccc2cc1OCC(=O)c1c[nH]c2cc(C3CC3)ccc12
Pseudomonas aeruginosa [24]
  inhibition in vivo at 200 mg/kg: 50%

## O=C(CSc1nc2ccc([N+](=O)[O-])cc2[nH]1)Nc1ccc(I)cc1
[25]
  IC50: 13.4 µM

## Nc1ccc(S(=O)(=O)Nc2nccs2)cc1 [SULFATHIAZOLE]
[26]
  IC50: 9 µM

## O=C(CCCCCCCCCN=C=S)CC(=O)N[C@H]1CCOC1=O
[27]
  IC50: 134 µM

## Nc1nc2nn[nH]c2c(=O)[nH]1 [8-AZAGUANINE]
[28]
  IC50: 0.64 µM

## CCN(CC)S(=O)(=O)c1cc(C(=O)Nc2ccccc2C(=O)O)ccc1Br
[22]
  IC50: 65 µM

## O=C(CCc1ccc(Br)cc1)N[C@H]1CCOC1=O
[2]
  IC50: 0.25 µM

## CCCCCCCSCC(=O)N[C@H]1CCOC1=O
Escherichia coli
  inhibition: 50%

## CCCCCCCOc1ccc(C(=O)N[C@H]2CCOC2=O)cc1
[2]
  IC50: 1 µM

## O=C(Cc1cccc(I)c1)N[C@H]1CCOC1=O
[2]
  IC50: 1.72 µM

## CS(=O)(=O)c1ncc(-n2cnnn2)cn1
[29]
  IC50: 15 µM
[20]
  IC50: 21 µM

## CCOC(=O)CNC(=O)C(=O)c1ccccc1Nc1ccc([N+](=O)[O-])cc1[N+](=O)[O-]
[19]
  inhibition: 48%

## O=c1cc(-c2ccccc2)oc2c(O)c(O)ccc12
[30]
  inhibition: > 70%
[31]
  inhibition: > 70%

## CCCCCCCCNC(=O)CC(=O)c1ccccc1
[32]
  IC50: 10 µM

## Cc1ccc2nc(SCC(=O)Nc3ccc(Br)cc3)[nH]c2c1
[25]
  IC50: 12.5 µM
